Experimental data: the supplement of paper PMC10307832

Columns and labels:
Test in all cases: relative viability (nuclei count vs DMSO), 5 days (fraction); higher = more cells survive
BAY61-3606 + Olaparib = compound: COC1=C(C=C(C=C1)C2=CC3=NC=CN3C(=N2)NC4=C(C=CC=N4)C(=O)N)OC [BAY61-3606] + O=C(c1cc(Cc2n[nH]c(=O)c3ccccc23)ccc1F)N1CCN(C(=O)C2CC2)CC1 [Olaparib] (partner 8 µM)
Outline: (§1)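 Lung cancer cell lines in 1536-well plates got either a single drug or a fixed anchor-drug dose together with five library-drug doses (not always all listed) in √10 steps, by pin tool, on the day after seeding. Nuclei were counted after 5 days, and relative viability is the treated-to-vehicle ratio of nuclei counts. Values are medians of duplicate plates.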

BAY61-3606 + Luminespib = compound: COC1=C(C=C(C=C1)C2=CC3=NC=CN3C(=N2)NC4=C(C=CC=N4)C(=O)N)OC [BAY61-3606] + CCNC(=O)c1noc(-c2cc(C(C)C)c(O)cc2O)c1-c1ccc(CN2CCOCC2)cc1 [Luminespib] (partner 0.01 µM)
Outline: as §1

Doxorubicin + AZD7762 = compound: COc1cccc2c1C(=O)c1c(O)c3c(c(O)c1C2=O)C[C@@](O)(C(=O)CO)C[C@@H]3O[C@H]1C[C@H](N)[C@H](O)[C@H](C)O1 [Doxorubicin] + NC(=O)Nc1cc(-c2cccc(F)c2)sc1C(=O)N[C@H]1CCCNC1 [AZD7762] (partner 0.2 µM)
Outline: as §1

Doxorubicin + Pictilisib = compound: COc1cccc2c1C(=O)c1c(O)c3c(c(O)c1C2=O)C[C@@](O)(C(=O)CO)C[C@@H]3O[C@H]1C[C@H](N)[C@H](O)[C@H](C)O1 [Doxorubicin] + CS(=O)(=O)N1CCN(Cc2cc3nc(-c4cccc5[nH]ncc45)nc(N4CCOCC4)c3s2)CC1 [Pictilisib] (partner 1 µM)
Outline: as §1

Cell Line	relative viability (BAY61-3606 + Olaparib; first compound 0.02 µM)	relative viability (BAY61-3606 + Olaparib; first compound 0.06325 µM)	relative viability (BAY61-3606 + Olaparib; first compound 0.2 µM)	relative viability (BAY61-3606 + Olaparib; first compound 0.6325 µM)	relative viability (BAY61-3606 + Olaparib; first compound 2 µM)	relative viability (BAY61-3606 + Luminespib; first compound 0.02 µM)	relative viability (BAY61-3606 + Luminespib; first compound 0.06325 µM)	relative viability (BAY61-3606 + Luminespib; first compound 0.2 µM)	relative viability (BAY61-3606 + Luminespib; first compound 0.6325 µM)	relative viability (BAY61-3606 + Luminespib; first compound 2 µM)	relative viability (Doxorubicin + AZD7762; first compound 0.001 µM)	relative viability (Doxorubicin + AZD7762; first compound 0.003162 µM)	relative viability (Doxorubicin + AZD7762; first compound 0.01 µM)	relative viability (Doxorubicin + AZD7762; first compound 0.03162 µM)	relative viability (Doxorubicin + AZD7762; first compound 0.1 µM)	relative viability (Doxorubicin + Pictilisib; first compound 0.001 µM)	relative viability (Doxorubicin + Pictilisib; first compound 0.003162 µM)	relative viability (Doxorubicin + Pictilisib; first compound 0.01 µM)	relative viability (Doxorubicin + Pictilisib; first compound 0.03162 µM)	relative viability (Doxorubicin + Pictilisib; first compound 0.1 µM)
EMC-BAC-2	0.493	0.52	0.48	0.493	0.457	1.21	1.15	1.17	1.25	0.904	1.11	1.03	0.89	0.636	0.691	0.685	0.528	0.538	0.477	0.338
NCI-H838	0.802	0.847	0.751	0.729	0.571	0.368	0.24	0.347	0.259	0.28	0.921	0.934	0.913	0.919	0.749	0.394	0.424	0.387	0.227	0.182
NCI-H1915	0.253	0.236	0.254	0.247	0.181	0.777	0.86	0.686	0.731	0.369	0.694	0.761	0.644	0.688	0.714	0.854	1.01	0.954	1.06	1.03
NCI-H441	0.561	0.629	0.511	0.473	0.32	0.258	0.31	0.369	0.335	0.302	1.05	1.07	0.954	0.853	0.912	0.434	0.521	0.404	0.292	0.323
ChaGo-K-1	0.442	0.452	0.368	0.392	0.357	0.611	0.606	0.587	0.554	0.436	0.857	0.922	0.873	0.846	0.811	0.971	0.506	0.621	0.369	0.238
NCI-H1355	0.778	0.713	0.708	0.762	0.641	0.736	0.657	0.694	0.727	0.413	0.838	0.741	0.741	0.673	0.72	0.179	0.565	0.465	0.412	0.44
NCI-H1651	0.195	0.198	0.184	0.182	0.145	1.03	0.869	0.664	1.13	0.603	0.466	0.536	0.399	0.509	0.397	0.608	0.437	0.412	0.138	0.107
LU99A	0.261	0.253	0.241	0.246	0.243	0.347	0.256	0.407	0.248	0.209	0.353	0.394	0.429	0.317	0.324	0.349	0.323	0.318	0.272	0.314
NCI-H322M	0.779	0.822	0.75	0.749	0.724	0.879	0.806	0.818	0.819	0.742	0.514	0.546	0.6	0.502	0.429	0.589	0.448	0.546	0.561	0.564
LOU-NH91	0.944	0.922	0.903	0.944	0.728	0.375	0.294	0.396	0.379	0.317	–	0.79	0.77	0.722	0.429	–	0.516	0.564	0.465	0.419
NCI-H727	0.586	0.643	0.752	0.68	0.627	0.334	0.364	0.266	0.328	0.331	0.675	0.575	–	0.497	0.573	0.334	0.342	0.353	0.391	0.356
RERF-LC-KJ	0.878	0.899	1.07	0.872	0.779	1.22	1.45	1.2	1.3	0.849	1.04	1.1	0.872	0.866	0.896	0.531	0.54	0.595	0.501	0.48
H3255	0.545	0.486	0.511	0.582	0.516	0.966	0.896	0.951	1.06	0.961	0.859	0.818	0.821	0.964	0.764	0.481	0.482	0.415	0.452	0.48
NCI-H1793	0.988	0.814	1	1.03	0.718	0.177	0.159	–	0.163	0.182	–	0.432	0.574	0.298	0.358	–	0.365	0.417	0.309	0.301
LXF-289	1.05	1.1	0.96	1.04	0.963	0.772	0.578	0.648	0.551	0.561	1.04	1.11	1.09	1.2	1.06	0.698	0.772	0.716	0.783	0.745
HOP-62	0.476	0.569	0.279	0.505	0.376	0.919	1.07	0.83	0.933	0.651	0.533	0.54	0.519	0.527	0.397	0.315	1.03	0.782	0.553	0.717
